Molecular target: PKBα (Homo sapiens, UniProt P31749)
Assay: PKB kinase assay (P33-labeled ATP, peptide substrate, filter plate)
Format: biochemical
Conditions: PKBα enzyme (full length or kinase domain with pleckstrin domain deleted)
Source text: The kinase assay for evaluating PKB activity comprises active PKB enzymes, a PKB specific substrate, and P^33-labeled ATP. […] The phosphorylated substrate was captured by a phosphocellulose membrane filter plate (MLLIPORE) and measured by a Wallac Microbeta liquid scintillation counter (Perkin Elmer).

PKBα, sequence (P31749 118-480 limits assumed): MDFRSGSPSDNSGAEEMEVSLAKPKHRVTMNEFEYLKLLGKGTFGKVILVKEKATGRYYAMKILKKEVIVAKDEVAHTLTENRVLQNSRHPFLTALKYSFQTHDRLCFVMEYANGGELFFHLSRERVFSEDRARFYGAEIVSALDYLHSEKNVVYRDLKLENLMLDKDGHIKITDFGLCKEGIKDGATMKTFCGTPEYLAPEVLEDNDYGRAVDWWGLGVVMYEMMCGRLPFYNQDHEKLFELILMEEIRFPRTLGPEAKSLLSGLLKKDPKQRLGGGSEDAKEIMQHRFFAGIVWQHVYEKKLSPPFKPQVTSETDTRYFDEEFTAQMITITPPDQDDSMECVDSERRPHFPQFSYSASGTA

| SMILES | IC50 |
| --- | --- |
| N[C@H](CNc1nc(C2CCCO2)c(-c2ccc3c(c2)CC(=O)N3)s1)Cc1ccc(Cl)cc1 (stereo partly drawn) [Example 197, 5-(2-((S)-2-Amino-3-(4-chlorophenyl)propylamino)-4-(tetrahydrofuran-2-yl)thiazol-5-yl)indolin-2-one] | 1000 to 10000 nM |
| N[C@H](CNc1nc(C2CCCO2)c(-c2ccc3cnccc3c2)s1)Cc1ccc(C(F)(F)F)cc1 (stereo partly drawn) [Example 198, N—((S)-2-Amino-3-(4-(trifluoromethyl)phenyl)propyl)-5-(isoquinolin-6-yl)-4-(tetrahydrofuran-2-yl)thiazol-2-amine] | < 50 nM |
| N[C@H](CNc1ncc(-c2ccc3c(c2)C2(CC2)C(=O)N3)s1)Cc1ccc(C(F)(F)F)cc1 [Example 199, 5′-(2-((S)-2-amino-3-(4-(trifluoromethyl)phenyl)propylamino)thiazol-5-yl)spiro[cyclopropane-1,3′-indol]-2′(1′H)-one] | 50 to 1000 nM |
| C[C@@H](c1ccc(C(F)(F)F)cc1)[C@H](N)CNc1ncc(-c2ccc3c(c2)C2(CC2)C(=O)N3)s1 [Example 200, 5′-(2-((2S,3S)-2-amino-3-(4-(trifluoromethyl)phenyl)butylamino)thiazol-5-yl)spiro[cyclopropane-1,3′-indol]-2′(1′H)-one] | 50 to 1000 nM |
| N[C@H](CNc1ncc(-c2ccc3c(c2)CC(=O)N3)s1)Cc1ccc2ccccc2c1 [Example 201, 5-(2-((S)-2-amino-3-(naphthalen-2-yl)propylamino)thiazol-5-yl)indolin-2-one] | 50 to 1000 nM |
| N[C@H](CNc1ncc(-c2ccc3cnccc3c2)s1)Cc1ccc2ccccc2c1 [Example 202, N—((S)-2-amino-3-(naphthalen-2-yl)propyl)-5-(isoquinolin-6-yl)thiazol-2-amine] | < 50 nM |
| Cn1c(=O)[nH]c2ccc(-c3cnc(NC[C@@H](N)Cc4ccc5ccccc5c4)s3)cc21 [Example 203, 6-(2-((S)-2-amino-3-(naphthalen-2-yl)propylamino)thiazol-5-yl)-1-methyl-1H-benzo[d]imidazol-2(3H)-one] | 50 to 1000 nM |
| N[C@H](CNc1ncc(-c2ccc3[nH]c(=O)oc3c2)s1)Cc1ccc2ccccc2c1 [Example 204, 6-(2-((S)-2-amino-3-(naphthalen-2-yl)propylamino)thiazol-5-yl)benzo[d]oxazol-2(3H)-one] | < 50 nM |
| COc1cc(C[C@H](N)CNc2ncc(-c3ccc4cnccc4c3)s2)ccc1C(F)(F)F [Example 205, N—((S)-2-amino-3-(3-methoxy-4-(trifluoromethyl)phenyl)propyl)-5-(isoquinolin-6-yl)thiazol-2-amine] | < 50 nM |
| COc1cc(C[C@H](N)CNc2ncc(-c3ccc4c(c3)CC(=O)N4)s2)ccc1C(F)(F)F [Example 206, 5-(2-((S)-2-amino-3-(3-methoxy-4-(trifluoromethyl)phenyl)propylamino)thiazol-5-yl)indolin-2-one] | < 50 nM |
| COc1cc(C[C@H](N)CNc2ncc(-c3ccc4[nH]c(=O)oc4c3)s2)ccc1C(F)(F)F [Example 207, 6-(2-((S)-2-amino-3-(3-methoxy-4-(trifluoromethyl)phenyl)propylamino)thiazol-5-yl)benzo[d]oxazol-2(3H)-one] | < 50 nM |
| N[C@H](CNc1ncc(-c2ccc3cnccc3c2)s1)Cc1ccc(C(F)(F)F)c(O)c1 [Example 208, 5-((S)-2-amino-3-(5-(isoquinolin-6-yl)thiazol-2-ylamino)propyl)-2-(trifluoromethyl)phenol] | < 50 nM |
| N[C@H](CNc1ncc(-c2ccc3c(c2)CC(=O)N3)s1)Cc1ccc(C(F)(F)F)c(O)c1 [Example 209, 5-(2-((S)-2-amino-3-(3-hydroxy-4-(trifluoromethyl)phenyl)propylamino)thiazol-5-yl)indolin-2-one] | 50 to 1000 nM |
| N[C@H](CNc1ncc(-c2ccc3[nH]c(=O)oc3c2)s1)Cc1ccc(C(F)(F)F)c(O)c1 [Example 210] | < 50 nM |
| N[C@H](CNc1ncc(-c2ccc3cnccc3c2)s1)Cc1ccc(Cl)s1 [Example 211, N—((S)-2-amino-3-(5-chlorothiophen-2-yl)propyl)-5-(isoquinolin-6-yl)thiazol-2-amine] | < 50 nM |

— US8084479B2, “Thiazole compounds and methods of use” (Amgen Inc., priority 2006, dated 2011)
